Source: US11737462B2, “Methods for modulating plant response to environmentally-induced stress” (Howard University, priority 2012, dated 2023)

Key:
[1] = system: homodimerized RACK1A maintaining yeast cells (AA); experiment: UV-B induced cell death in homodimerized RACK1A maintaining yeast cells (AA); assay type: cell-based; details: 60 μM overnight, Live/dead staining, vs DMSO-only control
Method: (§1) In this experiment, yeast cells were irradiated with UV-B light to analyze the effect of SD-29 analogs on UV-B induced cell death. The yeast cells were developed to assay for RACK1A homodimerization assays using split-ubiquitin technique. In this assay, homodimerized RACK1A maintaining yeast cells (AA) were grown overnight in the presence of 60 μM of the indicated compounds. Yeast cells treated overnight with SD-29-7, SD-29-9, and SD-29-11 with and without exposure to UV-B were compared to a DMSO-only control. The cells were stained with Invitrogen's Live/dead cell assay system where dead cells appeared as intensely fluorescent with brightness under a fluorescent microscope.
(§2) In this experiment, yeast was treated with UV-B to analyze the effect of SD-29-12 on UV-B induced cell death. Two groups of yeast were used. One was the yeast used in Example 6 (“AA”) and the other (“YY”) is a Y248F mutant. The AA cells can homodimerize but YY cells cannot.
(§3) The yeast was treated overnight with SD-29-12 and then followed the same protocol as described in Example 6.

plant = experiment: salt sensitivity when applied to a plant; details: in vivo
Y248F mutant yeast (YY) = experiment: UV-B induced cell death in Y248F mutant yeast (YY); assay type: cell-based; details: treated overnight, Live/dead staining
Method: as §1, §2, §3

Arabidopsis plants = experiment: high temperature stress (42° C.) in Arabidopsis plants; assay type: in vivo, Arabidopsis thaliana
RACK1A = RACK1A (Arabidopsis thaliana, UniProt O24456); experiment: in-vitro assay of tyrosine phosphorylation (Y248) based homodimerization of RACK1A; assay type: biochemical; details: in-vitro assay
Chain of RACK1A (O24456 whole entry): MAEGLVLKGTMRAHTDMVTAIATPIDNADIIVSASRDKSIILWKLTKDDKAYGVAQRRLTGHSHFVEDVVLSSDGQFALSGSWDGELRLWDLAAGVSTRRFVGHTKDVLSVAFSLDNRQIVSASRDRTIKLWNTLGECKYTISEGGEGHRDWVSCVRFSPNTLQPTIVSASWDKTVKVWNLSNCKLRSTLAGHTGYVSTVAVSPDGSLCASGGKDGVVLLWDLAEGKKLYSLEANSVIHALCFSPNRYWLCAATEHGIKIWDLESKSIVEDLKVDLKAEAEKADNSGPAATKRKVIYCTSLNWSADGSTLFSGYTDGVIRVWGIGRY
Source text: A crystal structure of Arabidopsis thaliana RACK1 protein has been reported. Deducing the crystal structure of the Arabidopsis RACK1A protein highlighted the potential functional residues of the protein. Noteworthy in the structure was the functionally conserved tyrosine phosphorylation residue (Y248) that has been implicated in RACK1A function. Therefore, it was undertaken to identify a chemical inhibitor of Y248 phosphorylation that would serve as a potential “anti-stress” compound in countering environmental stresses in plants. In order to identify small compounds occupying the Y248 pocket, docking simulations with a subset of 30,000 compounds were performed. Based on ranking with an energy cut-off of 25 kcal/mol, 3,011 compounds were then selected. Upon further re-ranking, 46 lead compounds were identified and 11 compounds were screened for their efficacy in an in-vitro assay. […] Those six compounds include SD-29, SD-29-9, SD-29-11, SD-29-22, SD-34, and SD-125.

Arabidopsis RACK1A = target: T1, Arabidopsis RACK1A (Arabidopsis thaliana, UniProt O24456); experiment: western blot of RACK1A tyrosine phosphorylation in Arabidopsis leaves under heat stress; assay type: in vivo; details: 42° C. for three hours, western blot, antibody to phosphorylated Y248
T1 construct: from tissue; host or cells: Arabidopsis plant leaves
T1 sequence (O24456 whole entry): as above
Method: In the examples described herein, the test compounds (e.g., SD-29 or analogs thereof) were dissolved in dimethyl sulfoxide (DMSO) to provide a 20 mM concentration. Micromolar concentrations were then prepared as needed by addition to the water incubation media. Unless stated otherwise, the experimental plants were incubated with the roots immersed in the water containing the compound. The control plants received only DMSO in the same amount as that of the compound. In the second group (FIG. 3), Arabidopsis plants were held at 42° C. for six hours and compared to control plants held at about 22° C. The Arabidopsis plant in the experimental group was treated with 60 μM SD-29 in water. A control plant received water and DMSO. Lysates were then prepared from the leaves and western blots were performed using immobilized mouse anti-pTRY and Arabidopsis-anti RAC[…]. […] A similar experiment was carried out using analog SD-29-9 and SD-29 at 42° C. for three hours. […] A western blot was then performed using an antibody that was raised targeting phosphorylated […] residue of RAC[…].

SMILES | UV-B induced cell death in yeast cells (AA) [1] | tyrosine phosphorylation (Y248) based homodimerization of RACK1A proteins (RACK1A) | other results
COc1ccc(-c2nnc(SCC(=O)O)n2N)cc1 [SD-29-12] | effective to prevent UV-B induced cell death |  | salt sensitivity when applied to a plant (plant): induces salt sensitivity; UV-B induced cell death in Y248F mutant yeast (YY) (Y248F mutant yeast (YY)): failed to provide protection from UV-B induced cell death; high temperature stress induced deformations in Arabidopsis plants (Arabidopsis plants; 42° C., vs vehicle control (DMSO)): very effective in preventing high temperature stress induced deformations; heat sensitivity when applied to a plant (Arabidopsis plants; in vivo): does not induce heat sensitivity
COc1cc(-c2nnc(SCC(=O)Nc3ccc(Oc4ccccc4)cc3)n2N)cc(OC)c1OC [SD-29-11] | effective to protect yeast cells from UV-B induced cell death | prevent tyrosine phosphorylation (Y248) based homodimerization of RACK1A proteins | 
Nn1c(SCc2ccc(F)cc2)nnc1-c1ccc(Cl)cc1 [SD-29-7] | did not protect the cells |  | 
Cc1ccc2[nH]cc(C(O)C(F)(F)F)c2c1 (stereo not shown) [SD-34] |  | prevent tyrosine phosphorylation (Y248) based homodimerization of RACK1A proteins | 
Cc1cc(Cl)ccc1NC(=O)CSc1nnc(-c2cccc(Cl)c2)n1N [SD-29-9] | effective to protect yeast cells from UV-B induced cell death | prevent tyrosine phosphorylation (Y248) based homodimerization of RACK1A proteins | Arabidopsis RACK1A tyrosine phosphorylation at increased temperature (Arabidopsis RACK1A): effective to prevent Arabidopsis RACK1A tyrosine phosphorylation at increased temperature
COc1ccc2[nH]cc(CC(N)C(=O)O)c2c1 (stereo not shown) [SD-125] |  | prevent tyrosine phosphorylation (Y248) based homodimerization of RACK1A proteins | 
